# Measured values as given in US20100130449A1, “Use of Tri-Substituted Glycerol Compounds for the Treatment of Radiation Injuries” (ALPHAPTOSE GMBH, priority 2006, published 2010).
# Experiments:
# Assay type in all cases: in vivo
# neutron irradiated mice [1] = experiment: Survival of mice, ET18-OCH3 given 1 day before neutron irradiation
# Excerpt: The effect of ET18-OCH3 before applying different doses of neutron radiation on the survival rates of mice are summarized in Table 5.
# gamma-radiated mice [2] = experiment: Survival of mice after gamma irradiation, single dose of ET18-OCH3 before or after irradiation
# Procedure: FIG. 1 depicts the radioprotective effect of ET18-OCH3 on the survival rate of mice. ET18-OCH3 was administered as a single dose of 50 mg/kg body weight to each of 40 mice (20 control mice, 20 test mice). 24 hours later, the 20 test mice were exposed to a gamma radiation dose of 7.9 Gy (Gray) and 8.7 Gy, respectively. The survival rates were monitored for 30 days.
# X-ray irradiated mice = experiment: Survival of X-ray irradiated mice, ET18-OCH3 given after irradiation; settings: for Death/Survival treated: 2 × 25 mg/kg intravenous 6 hours and 12 hours after irradiation
# Procedure: The efficacy of 1-O-octadecyl-2-O-methyl-glycero-3-phosphocholine (in the following referred to as “ET18-OCH3”) as a radioprotectant in the treatment of an acute radiation injury that is caused by (mid)lethal radiation doses was analyzed by determining its influence on the survival rate of mice and on the hematological syndrome of the radiation injury in response to different types of radiation.
# A single dose of 25 mg/kg ET18-OCH3 was administered at a time intravenously to 25 mice 12 hours after exposure to an X-ray dose of 650 cGy (centiGray). Only one of the 25 treated mice died, as compared to 6 of the 25 mice in the control group.
# After an intravenous administration of 25 mg/kg ET18-OCH3 6 hours and 12 hours after X-ray irradiation, respectively, the following results were obtained (Table 1). The chi-square distribution is given for all positive values. The chi-square test was used for comparing the results of the treated versus the control animals.
# After an oral administration of 25 mg/kg ET18-OCH3 6 hours and 24 hours after exposure to a X-ray dose of 700 cGy X-ray irradiation, respectively, 2 of 25 treated animals died, as compared to 7 of 25 of the control animals.
# neutron irradiated mice [3] = experiment: White blood cell count (hemogram) after ET18-OCH3 and neutron irradiation
# Procedure: FIG. 2 depicts the radioprotective effect of ET18-OCH3 (referred to as “ALP”) on the lymphocyte numbers of mice. Mice were treated with a single dose 70 mg/kg ET18-OCH3 (administered subcutaneously) 24 hours before exposure to neutron radiation (radiation dose 2.0 Gy). […]
# FIG. 3 depicts the radioprotective effect of ET18-OCH3 (referred to as “ALP”) on the granulocyte numbers of mice. The experiment was performed in an analogous manner as described in FIG. 2.
# The radioprotective effect of ET18-OCH3 on lymphocyte and granulocyte numbers in mice is shown in FIG. 2 and FIG. 3, respectively.
# neutron irradiated mice [4] = experiment: Survival of mice after neutron radiation, ET18-OCH3 given after irradiation; settings: 400-420 cGy neutron radiation, 50 mg/kg subcutaneous
# Procedure: Mice were irradiated using a van de Graaf generator with of 3-8 MeV neutrons. The radiation doses used in the following analyses were 400, 410, and 420 cGy for each third of the treated and the control mice, respectively. A single dose of 50 mg/kg ET18-OCH3 was administered to half of the mice by subcutaneous injection.
# neutron irradiated mice [5] = experiment: Cell numbers in the peripheral blood of mice after neutron irradiation; settings: for Granulocytes, median/interquartile distance / Leukocytes, median/interquartile distance / Lymphocytes, median/interquartile distance / Thrombocytes, median/interquartile distance: 300 cGy neutron
# Procedure: Mice were irradiated using a van de Graaf generator with of 3-8 MeV neutrons. […] A single dose of 50 mg/kg ET18-OCH3 was administered to half of the mice by subcutaneous injection.
# As the therapy experiments were carried out with an irradiation dose range, in which the hematological syndrome of the radiation injury predominates, the evaluation of the therapeutic effect of the drug on the blood forming (hematopoetic) system is important.
# gamma-radiated mice [6] = experiment: Survival of mice after gamma irradiation, single dose of ET18-OCH3 before or after irradiation; remark: listed apart in the source
# [7] = neutron 425 cGy, 50 mg/kg subcutaneously 1 day before irradiation
# [8] = neutron 425 cGy, 70 mg/kg subcutaneously 1 day before irradiation
# [9] = neutron 450 cGy, 50 mg/kg subcutaneously 1 day before irradiation
# [10] = neutron 450 cGy, 70 mg/kg subcutaneously 1 day before irradiation
# [11] = gamma 790 cGy, 50 mg/kg, 1 d before irradiation
# [12] = gamma 870 cGy, 50 mg/kg, 1 d before irradiation
# [13] = day 7, 50 mg/kg s.c. 30 min after irradiation
# [14] = day 7, 50 mg/kg s.c. 2 h after irradiation
# [15] = day 14, 50 mg/kg s.c. 30 min after irradiation
# [16] = day 14, 50 mg/kg s.c. 2 h after irradiation
# [17] = gamma 750 cGy, 30 mg/kg, a.r. (after radiation)
# [18] = gamma 750 cGy, 50 mg/kg, 1 d before irradiation
# [19] = gamma 775 cGy, 40 mg/kg, a.r. (after radiation)
# [20] = gamma 775 cGy, 50 mg/kg, 2 h before irradiation
# [21] = gamma 775 cGy, 50 mg/kg, 1 d before irradiation
# [22] = gamma 800 cGy, 40 mg/kg, a.r. (after radiation)
# [23] = gamma 800 cGy, 50 mg/kg, 2 h before irradiation
# [24] = gamma 830 cGy, 50 mg/kg, 1 d before irradiation
smiles,measurement,setting,value
"CCCCCCCCCCCCCCCCCCOCC(COP(=O)([O-])OCC[N+](C)(C)C)OC (stereo not drawn) [ET18-OCH3, 1-O-octadecyl-2-O-methyl-glycero-3-phosphocholine]",Death,neutron irradiated mice [1]; [7],11 (73%)
same,Survival,neutron irradiated mice [1]; [7],4 (27%)
same,Death,neutron irradiated mice [1]; [8],10 (67%)
same,Survival,neutron irradiated mice [1]; [8],5 (33%)
same,Death,neutron irradiated mice [1]; [9],8 (26%)
same,Survival,neutron irradiated mice [1]; [9],22 (73%)
same,Death,neutron irradiated mice [1]; [10],12 (80%)
same,Survival,neutron irradiated mice [1]; [10],3 (20%)
same,Death,"neutron irradiated mice [1]; neutron 475 cGy, 50 mg/kg subcutaneously 1 day before irradiation",19 (76%)
same,Death,gamma-radiated mice [2]; [11],2 (10%)
same,Survival,gamma-radiated mice [2]; [11],18 (90%)
same,Death,gamma-radiated mice [2]; [12],7 (35%)
same,radioprotective effect on survival,gamma-radiated mice [2]; similar when given either 24 hours or shortly before gamma irradiation,significant radioprotective effect
same,Death/Survival treated,X-ray irradiated mice; X-ray dose 650 cGy,2/28
same,Death/Survival treated,X-ray irradiated mice; X-ray dose 700 cGy,3/25
same,Death/Survival treated,X-ray irradiated mice; X-ray dose 750 cGy,14/16
same,Death/Survival treated,X-ray irradiated mice; X-ray dose 800 cGy,22/8
same,treated animals died,"X-ray irradiated mice; oral 25 mg/kg 6 hours and 24 hours after X-ray dose of 700 cGy, control 7 of 25 died",2 of 25
same,treated mice died,"X-ray irradiated mice; single dose 25 mg/kg intravenously 12 hours after X-ray dose of 650 cGy, control 6 of 25 died",one of the 25
same,LD50/30 X-ray dose,"X-ray irradiated mice; treated animals, 25 mg/kg intravenous 6 and 12 hours after irradiation, untreated controls 688.1±38.6",749±37.1 cGy
same,X-ray mediated lethality,X-ray irradiated mice; treated mice compared to control mice,delayed
same,reduction of leukocyte numbers (both of lymphocytes and granulocytes) compared to untreated controls,"neutron irradiated mice [3]; 50 mg/kg and 70 mg/kg, neutron irradiation, not statistically significant, 5 experiments, n=90",slightly increased
same,difference between the administration of 50 mg/kg and 70 mg/kg,neutron irradiated mice [3]; leukocyte numbers after neutron irradiation,No statistically significant difference
same,leukocyte numbers (both lymphocytes and granulocytes),"neutron irradiated mice [3]; starting at day 3 after irradiation, significant at day 7 (4 experiments; n=30, p<0.003)",increase in leukocyte numbers
same,number of lymphocyte relative to the normal value,"neutron irradiated mice [3]; treated animals at mid-lethal irradiation doses, average",about one tenth
same,Survival/Death,neutron irradiated mice [4]; 30 min,18 (75%)/6 (25%)
same,Survival/Death,neutron irradiated mice [4]; 2 h,13 (54%)/11 (46%)
same,Survival/Death,neutron irradiated mice [4]; 6 h,12 (52%)/11 (48%)
same,"Granulocytes, median/interquartile distance",neutron irradiated mice [5]; [13],209/202
same,"Leukocytes, median/interquartile distance",neutron irradiated mice [5]; [13],975/450
same,"Lymphocytes, median/interquartile distance",neutron irradiated mice [5]; [13],684/255
same,"Thrombocytes, median/interquartile distance",neutron irradiated mice [5]; [13],698/427
same,"Granulocytes, median/interquartile distance",neutron irradiated mice [5]; [14],240/304
same,"Leukocytes, median/interquartile distance",neutron irradiated mice [5]; [14],675/413
same,"Lymphocytes, median/interquartile distance",neutron irradiated mice [5]; [14],446/132
same,"Thrombocytes, median/interquartile distance",neutron irradiated mice [5]; [14],900/315
same,concentration of leukocytes and granulocytes in the peripheral blood,"neutron irradiated mice [5]; day 10-15 after irradiation, when the irradiated mice died",significantly increases
same,"Granulocytes, median/interquartile distance",neutron irradiated mice [5]; [15],3063/3121
same,"Leukocytes, median/interquartile distance",neutron irradiated mice [5]; [15],8675/11827
same,"Lymphocytes, median/interquartile distance",neutron irradiated mice [5]; [15],7439/6942
same,"Thrombocytes, median/interquartile distance",neutron irradiated mice [5]; [15],533/263
same,"Granulocytes, median/interquartile distance",neutron irradiated mice [5]; [16],4189/2282
same,"Leukocytes, median/interquartile distance",neutron irradiated mice [5]; [16],9975/5863
same,"Lymphocytes, median/interquartile distance",neutron irradiated mice [5]; [16],5101/3765
same,"Thrombocytes, median/interquartile distance",neutron irradiated mice [5]; [16],987/464
same,Death,gamma-radiated mice [6]; [17],1 (6%)
same,Survival,gamma-radiated mice [6]; [17],17 (94%)
same,Death,gamma-radiated mice [6]; [18],0
same,Survival,gamma-radiated mice [6]; [18],20 (100%)
same,Death,gamma-radiated mice [6]; [19],12 (60%)
same,Survival,gamma-radiated mice [6]; [19],8 (40%)
same,Death,gamma-radiated mice [6]; [20],5 (25%)
same,Survival,gamma-radiated mice [6]; [20],15 (75%)
same,Death,gamma-radiated mice [6]; [21],2 (10%)
same,Survival,gamma-radiated mice [6]; [21],18 (90%)
same,Death,gamma-radiated mice [6]; [22],10 (29%)
same,Survival,gamma-radiated mice [6]; [22],25 (71%)
same,Death,gamma-radiated mice [6]; [23],3 (15%)
same,Survival,gamma-radiated mice [6]; [23],17 (85%)
same,Death,gamma-radiated mice [6]; [24],3 (15%)
same,Survival,gamma-radiated mice [6]; [24],17 (85%)
same,Survival,gamma-radiated mice [6]; [12],13 (65%)
same,LD50/30 gamma radiation dose,"gamma-radiated mice [6]; treated irradiated mice, ET18-OCH3 one day before irradiation, probit analysis, untreated irradiated controls 7.47 Gy",8.98 Gy
